In test [1] the test system is acetylated histone H-4 in T24 human bladder cancer cells. The test can be described thus: Histone H4 acetylation in whole cells by immunoblots. It counts as cell-based. To be noted: T-24, read-out: EC50, concentration effective for reducing the acetylated H-4 signal by 50%, T24 cells, 16 hours incubation, immunoblot densitometry. The method, then: T24 human bladder cancer cells growing in culture were incubated with HDAC inhibitors for 16 hours. Histones were extracted from the cells after the culture period as described by M. Yoshida et al. (J. Biol. Chem. 265(28): 17174-17179 (1990)). 20 μg of total histone protein was loaded onto SDS/PAGE and transferred to nitrocellulose membranes. Membranes were probed with polyclonal antibodies specific for acetylated histone H-4 (Upstate Biotech Inc.), followed by horse radish peroxidase conjugated secondary antibodies (Sigma). Enhanced Chemiluminescence (ECL) (Amersham) detection was performed using Kodak films (Eastman Kodak). Acetylated H-4 signal was quantified by densitometry.
A general note: Immunoblotting shows a protein as a band on a membrane.

The target in test [2] is T1, recombinant human HDAC-1 enzyme (rHDAC-1) (Homo sapiens, UniProt Q13547).
T1 construct: made in house; host or cells: Baculovirus insect cell expression system
T1 sequence (Q13547 whole entry): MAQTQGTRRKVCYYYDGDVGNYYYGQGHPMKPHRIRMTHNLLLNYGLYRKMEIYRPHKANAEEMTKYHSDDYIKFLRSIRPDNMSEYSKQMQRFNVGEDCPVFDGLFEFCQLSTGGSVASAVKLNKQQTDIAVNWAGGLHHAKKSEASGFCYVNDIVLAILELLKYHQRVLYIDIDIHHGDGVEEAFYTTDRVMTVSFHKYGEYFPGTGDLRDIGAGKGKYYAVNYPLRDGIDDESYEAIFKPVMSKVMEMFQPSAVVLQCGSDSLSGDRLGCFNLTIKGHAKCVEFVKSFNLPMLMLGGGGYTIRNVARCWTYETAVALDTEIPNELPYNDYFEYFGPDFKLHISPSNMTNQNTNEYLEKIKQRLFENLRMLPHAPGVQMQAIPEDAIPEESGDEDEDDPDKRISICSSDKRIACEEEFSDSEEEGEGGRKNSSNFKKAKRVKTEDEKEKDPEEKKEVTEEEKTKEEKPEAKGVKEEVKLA
The test can be described thus: Histone deacetylase inhibition, recombinant human HDAC-1. It counts as biochemical. To be noted: cloned recombinant human HDAC-1, Baculovirus insect cell expression; read-out: rHDAC-1 IC50. Summed up: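 Recombinant human HDAC-1 or pooled HDACs from H446 nuclear extracts were preincubated with compounds for 30 min at 4 °C before the reaction. Released [3H]-acetic acid was extracted with ethyl acetate after acid stop and counted by scintillation. IC50 was the concentration giving half-maximal inhibition from dose-response curves.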

Test [3] has as its system histone deacetylase enzyme in nuclear extracts from H446 cells (pooled HDACs). The test can be described thus: Histone deacetylase inhibition, H446 nuclear extracts (pooled HDACs). It counts as biochemical, human. To be noted: for IC50: H446 nuclear extract, [3H]-acetylated histone substrate; for pooled HDACs percent inhibition: percent inhibition at 20 μM (footnote). Summed up:
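Nuclear extract (30 μg) of human small cell lung cancer H446 cells, preincubated with compound 30 min at 4° C, then reacted 10 min at 37° C with [3H]-acetylated histone substrate (20,000 cpm). Released [3H]-acetic acid extracted with ethyl acetate and counted; IC50 as concentration giving half-maximal inhibition from dose-response curves.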

A further test deals with HDAC. To be noted: Richon et al. 1998; cited from earlier work.
Another test concerns cell growth. To be noted: Finnin et al. 1999; cited from earlier work.
The next test deals with tumors. To be noted: Finnin et al. 1999; cited from earlier work.
In a further test the test system is rat fibroblasts. As to conditions: Yoshida and Beppu 1988; cited from earlier work.
Test [4] has as its system A549 human lung carcinoma cells. The test can be described thus: Antineoplastic effect on A549 tumors in nude mice. It is filed as in vivo, BALB/c nude mice. To be noted: A549 xenograft, daily injection about 10 to about 50 mg/kg, 21 days. The method, then: Eight to ten week old female BALB/c nude mice (Taconic Labs, Great Barrington, N.Y.) were injected subcutaneously in the flank area with 2×10^6 preconditioned A549 human lung carcinoma cells. Preconditioning of these cells was accomplished by a minimum of three consecutive tumor transplantations in the same strain of nude mice. Subsequently, tumor fragments of approximately 30 mgs were excised and implanted subcutaneously in mice, in the left flank area, under isoflurane anesthesia (Abbott Labs, Geneva, Switzerland). When the tumors reached a mean volume of 100 mm^3, the mice were treated intravenously, subcutaneously or intraperitoneally, by daily injection of a solution of the inhibitor in an appropriate vehicle such as PBS, DMSO/water, or Tween 80/water, at a dose from about 10 mg/kg to about 50 mg/kg, for 21 days. Tumor volume was calculated every second day post infusion according to standard methods (e.g., Meyer et al., Int. J. Cancer 43: 851-856 (1989)).

Molecules are shown by their SMILES.

As a reminder, the IC50 is the concentration that gives 50% inhibition.

On to `O=C(CCCCCCC(=O)c1ccc(N2CCN(c3ccccc3)CC2)cc1)NO` [Compound 138g, N-Hydroxy-7-[4-(1-(4-phenylpiperazinyl))benzoyl]heptanamide], for which the EC50 in test [1] was determined as 5 µM. Further, the values for the IC50 in test [2] and in test [3] were 0.006 µM and 0.051 µM, respectively.

Consider `CC(/C=C/C(=O)Nc1ccccc1N)=C\C(C)Cc1ccc(N(C)C)cc1` (centres unmarked) [Compound 39], for which the EC50 in test [1] is 10 µM. Moreover, the figures for the IC50 in test [2] and in test [3] were 7 µM and over 20 µM, respectively.

With `CC(/C=C/C(=O)NO)=C\[C@@H](C)C(=O)c1ccc(N(C)C)cc1` [TSA, trichostatin A], the HDAC activity entry with HDAC is “inhibited”. In the test on cell growth, the cell growth result was “inhibit cell growth” and the terminal differentiation entry is reported as “induce terminal differentiation”. In addition, in the test on tumors, the “formation of tumors in mice” value is recorded as “prevent the formation of tumors in mice”. The cell cycle arrest entry with rat fibroblasts is “causes arrest of rat fibroblasts at the G1 and G2 phases of the cell cycle”.

As to `Nc1ccccc1NC(=O)CCCCCCC(=O)c1ccc(-c2ccccc2)cc1` [Compound 77, N-(2-Aminophenyl)-7-[(4-biphenyl)carbonyl]heptanamide], in test [1], the EC50 was 10 µM. In addition, the IC50 in test [2] came to 1.9 µM. Moreover, the “pooled HDACs percent inhibition” value in test [3] is reported as 11%.

As for `COc1ccc(-c2ccc(C(=O)CCCCCCC(=O)NO)cc2)cc1` [Compound 120, N-Hydroxy-7-[4-(4-methoxyphenyl)benzoyl]heptanamide], the EC50 in test [1] turned out to be 10 µM. Further, the IC50 in test [2] came out at 0.002 µM. For the same compound, in test [3], the “pooled HDACs percent inhibition” value was 83%.

For `Nc1ccccc1NC(=O)CCCCCN1C(=O)c2cccc3c(CN4CCCCC4)c(O)cc(c23)C1=O` [Compound 251c, N-(2-Aminophenyl)-6-[2-(5-hydroxy-1,3-dioxo-6-(1-methylpiperidynyl)-1H,3H-benzo[de]isoquinolinyl)]-hexanamide], the EC50 in test [1] worked out at 1 µM. The IC50 in test [2] turned out to be 2 µM.

With `COc1ccc(C(C/C=C/C=C/C(=O)Nc2ccccc2N)OC)cc1` (centres unmarked) [Compound 18, N-(2-Aminophenyl)-7-methoxy-7-(4-methoxyphenyl)-2,4-heptadienamide], the EC50 in test [1] is 10 µM. Also, the IC50 is 1 µM in test [2] and over 100 µM in test [3].

Consider `Cc1ccc2c(c1)C(=O)N(CCCCCC(=O)Nc1ccccc1N)C2=O` [Compound 243d, N-(2-Aminophenyl)-6-(5-methyl-N-phthaloyl)hexanamide], for which, in test [1], the EC50 stood at 3 µM. Also, in test [2], the IC50 came out at 3 µM.

In the case of `O=C(CCCCCCC(=O)Nc1ccccc1)NO` [SAHA, suberoylanilide hydroxamic acid], the HDAC activity entry in the test with HDAC was “inhibited”. Moreover, in the test with cell growth, the cell growth entry is “inhibit cell growth” and the terminal differentiation result was “induce terminal differentiation”. In addition, in the test with tumors, the “formation of tumors in mice” value is “prevent the formation of tumors in mice”.

With `COC(c1ccc(N(C)C)cc1)C(C)/C=C(C)/C=C/C(=O)Nc1ccccc1N` (centres unmarked) [Compound 34, N-(2-Aminophenyl)-4,6-dimethyl-7-methoxy-7-[4-(N,N-dimethylamino)phenyl]-2,4-heptadienamide], the EC50 in test [1] was 5 µM. Besides, the IC50 is 7 µM in test [2] and over 100 µM in test [3]. Besides, in test [4], the “tumor weight and volume relative to saline controls” value is “significant reduction in tumor weight and volume”.

As for `COC(C/C=C/C=C/C(=O)Nc1ccccc1N)c1ccc(N(C)C)cc1` (centres unmarked) [Compound 20, N-(2-Aminophenyl)-7-methoxy-7-[4-(N,N-dimethylamino)phenyl]-2,4-heptadienamide], in test [1], the EC50 turned out to be 5 µM. In addition, the results for the IC50 in test [2] and in test [3] were 3 µM and over 20 µM, respectively.

For `CC(/C=C/C(=O)Nc1ccccc1N)=C\C(C)C(=O)c1ccc(N(C)C)cc1` (centres unmarked) [Compound 35, N-(2-Aminophenyl)-4-methyl-6-[4-(N,N-dimethylamino)benzoyl]-2,4-heptadienamide], in test [1], the EC50 was 5 µM. Moreover, the IC50 was 2 µM in test [2] and over 100 µM in test [3].

(Values after patent US7288567B2, “Inhibitors of histone deacetylase” (Methylgene Inc., priority 2000, dated 2007).)
